From ChEMBL document CHEMBL3352668, “Synthesis and antibacterial evaluation of new, unsymmetrical triaryl bisamidine compounds” (Bioorg Med Chem Lett, 2014)
≈ marks a conversion by molar mass, not a printed value.

Key:
Klebsiella pneumoniae = assay: Antimicrobial activity against Klebsiella pneumoniae 13882 by CLSI method; type: functional
Pseudomonas aeruginosa [1] = assay: Antimicrobial activity against mexAB-oprM deficient Pseudomonas aeruginosa PAO1 harboring by CLSI method; type: functional
Pseudomonas aeruginosa [2] = assay: Antimicrobial activity against Pseudomonas aeruginosa PAO1 by CLSI method; type: functional
Escherichia coli [3] = assay: Antimicrobial activity against TolC+ Escherichia coli 700 by CLSI method; type: functional
Enterococcus faecalis = assay: Antimicrobial activity against vancomycin-resistant Enterococcus faecalis ATCC 51575 by CLSI method; type: functional
Escherichia coli [4] = assay: Antimicrobial activity against TolC-deficient Escherichia coli by CLSI method; type: functional; settings: Escherichia coli; read-out: MIC
Staphylococcus aureus = assay: Antimicrobial activity against methicillin-resistant Staphylococcus aureus 1094 by CLSI method; type: functional
Bacillus subtilis = assay: Antimicrobial activity against Bacillus subtilis BD54 by CLSI method; type: functional
HeLa = assay: (§1) Cytotoxicity against human HeLa cells by MTS assay; type: cell-based; settings: hela
Bacillus anthracis = assay: Antimicrobial activity against Bacillus anthracis Sterne by CLSI method; type: functional
[5] = as §1; type: cell-based; settings: HeLa cells
[6] = Klebsiella pneumoniae, 13882, read-out: MIC
[7] = Pseudomonas aeruginosa, PAO1, read-out: MIC
[8] = Escherichia coli, 700, read-out: MIC
[9] = Enterococcus faecalis, ATCC 51575, read-out: MIC
[10] = Staphylococcus aureus, 1094, read-out: MIC
[11] = Bacillus subtilis, BD54, read-out: MIC
[12] = Bacillus anthracis, Sterne, read-out: MIC

Row | SMILES | MIC (Klebsiella pneumoniae; [6]) [µg/mL] | MIC (Pseudomonas aeruginosa [1]) [µg/mL] | MIC (Pseudomonas aeruginosa [2]; [7]) [µg/mL] | MIC (Escherichia coli [3]; [8]) [µg/mL] | MIC (Enterococcus faecalis; [9]) [µg/mL] | MIC (Escherichia coli [4]) [µg/mL] | MIC (Staphylococcus aureus; [10]) [µg/mL] | MIC (Bacillus subtilis; [11]) [µg/mL] | CC50 (HeLa) [µg/mL] | MIC (Bacillus anthracis; [12]) [µg/mL] | MIC (Klebsiella pneumoniae) [µg/mL] | MIC (Pseudomonas aeruginosa [2]) [µg/mL] | MIC (Escherichia coli [3]) [µg/mL] | MIC (Enterococcus faecalis) [µg/mL] | MIC (Staphylococcus aureus) [µg/mL] | MIC (Bacillus subtilis) [µg/mL] | MIC (Bacillus anthracis) [µg/mL] | CC50 [5] [µg/mL]
1 | c1cc2cc(-c3ccc(-c4cn5ccc(C6=NCCCN6)cc5n4)cc3)[nH]c2cc1C1=NCCCN1 | 5 (≈ 10.6 µM) | > 80 | 40 (≈ 84.5 µM) | 2.5 (≈ 5.28 µM) | 1.25 (≈ 2.64 µM) | 0.31 (≈ 0.655 µM) | 2.5 (≈ 5.28 µM) | 0.16 (≈ 0.338 µM) | 20.9 (≈ 44.1 µM) | 1.25 (≈ 2.64 µM) | – | – | – | – | – | – | – | –
2 | CC1CNC(c2ccc3cc(-c4ccc(-c5cc6ccc(C7=NC(C)CN7)cc6o5)cc4)[nH]c3c2)=N1 (stereo in doubt; P6b) | – | 80 (≈ 169 µM) | – | – | – | 0.63 (≈ 1.33 µM) | – | – | 7.6 (≈ 16 µM) | – | 5 (≈ 10.6 µM) | 80 (≈ 169 µM) | 1.09 (≈ 2.3 µM) | 0.63 (≈ 1.33 µM) | 0.55 (≈ 1.16 µM) | 0.35 (≈ 0.739 µM) | 0.63 (≈ 1.33 µM) | –
3 | c1cc2cc(-c3ccc(-c4cc5ccc(C6=NCCCN6)cc5o4)cn3)[nH]c2cc1C1=NCCCN1 | 1.56 (≈ 3.29 µM) | – | 1.25 (≈ 2.63 µM) | 1.25 (≈ 2.63 µM) | 0.39 (≈ 0.822 µM) | 0.16 (≈ 0.337 µM) | 0.31 (≈ 0.653 µM) | 0.08 (≈ 0.169 µM) | 15.6 (≈ 32.9 µM) | 0.16 (≈ 0.337 µM) | – | – | – | – | – | – | – | –
4 | c1cc2cc(-c3ccc(-c4cn5cc(C6=NCCCN6)ccc5n4)cc3)[nH]c2cc1C1=NCCCN1 | 5 (≈ 10.6 µM) | 5 (≈ 10.6 µM) | 5 (≈ 10.6 µM) | 5 (≈ 10.6 µM) | 0.63 (≈ 1.33 µM) | 0.31 (≈ 0.655 µM) | 0.63 (≈ 1.33 µM) | 0.08 (≈ 0.169 µM) | 19.7 (≈ 41.6 µM) | 1.25 (≈ 2.64 µM) | – | – | – | – | – | – | – | –
5 | c1cc2cc(-c3ccc(-c4cc5ccc(C6=NCCN6)cc5o4)cc3)[nH]c2cc1C1=NCCN1 | 0.94 (≈ 2.11 µM) | 15 (≈ 33.7 µM) | 10 (≈ 22.4 µM) | 0.47 (≈ 1.05 µM) | 0.16 (≈ 0.359 µM) | 0.24 (≈ 0.539 µM) | 0.16 (≈ 0.359 µM) | 0.16 (≈ 0.359 µM) | – | 0.31 (≈ 0.696 µM) | – | – | – | – | – | – | – | 9.7 (≈ 21.8 µM)
6 | c1cc2cc(-c3ccc(-c4cc5ccc(C6=NCCN6)cc5[nH]4)cc3)[nH]c2cc1C1=NCCN1 | 0.24 (≈ 0.54 µM) | 2.5 (≈ 5.62 µM) | 7.5 (≈ 16.9 µM) | 1.25 (≈ 2.81 µM) | 0.16 (≈ 0.36 µM) | 0.16 (≈ 0.36 µM) | 0.16 (≈ 0.36 µM) | 0.12 (≈ 0.27 µM) | 32.5 (≈ 73.1 µM) | 0.31 (≈ 0.697 µM) | – | – | – | – | – | – | – | –
